Assay results taken from patent US9708314B2, “Heterocyclic amide compound” (NISSAN CHEMICAL INDUSTRIES, LTD., priority 2013, dated 2017).

Assays:
Format in all cases: in vivo
[1] = tested on: Echinochloa crus-galli var. crus-galli; assay: Test Example 3: herbicidal effect by application to foliage (Wagner pot, water depth 0.1-0.5 cm); conditions: Nineteenth Table; application to foliage; application herbicide amount 320 g/ha
Outline: (§1)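 Wagner pot foliar test: sow, grow 14 d (25–30 °C), spray diluted emulsion at set g/ha, score after 3 wk; 0 ≤5%, 5 ≥90% herbicidal ratio.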

Leptochloa chinensis = assay: as above; conditions: Nineteenth Table; application to foliage; application herbicide amount 320 g/ha
Outline: as §1

Triticum aestivum = assay: Test Example 4: effect on crop by application to foliage (diluvial soil, plastic box); conditions: application to foliage; for e: effect on crop, Triticum aestivum: application herbicide amount 320 g/ha; for effect on crop, e (Triticum aestivum): 320 g/ha
Outline: (§2)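 Read-out is a 0–5 visual grade of herbicidal ratio (5: ≥90%, almost withered; 0: ≤5%) taken three weeks after treatment. Compound was applied as a diluted emulsion to stem and leaf parts of 14-day greenhouse-grown plants (25° C. to 30° C.) at rates expressed as g/ha.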

Glycine max = assay: as above; conditions: application to foliage; for d: effect on crop, Glycine max: application herbicide amount 320 g/ha; for effect on crop, c (Glycine max): 320 g/ha
Outline: as §2

[2] = tested on: Beta vulgaris ssp. vulgaris; assay: as above; conditions: application to foliage; for f: effect on crop, Beta vulgaris ssp. vulgaris: application herbicide amount 320 g/ha; for effect on crop, f (Beta vulgaris ssp. vulgaris): 320 g/ha
Outline: as §2

Zea mays = assay: as above; conditions: application to foliage; for c: effect on crop, Zea mays: application herbicide amount 320 g/ha; for effect on crop, b (Zea mays): 320 g/ha
Outline: as §2

Brassica campestris L. = assay: as above; conditions: application to foliage; for g: effect on crop, Brassica campestris L.: application herbicide amount 320 g/ha; for effect on crop, g (Brassica campestris L.): 320 g/ha
Outline: as §2

[3] = tested on: directly sowed Oryza sativa; assay: as above; conditions: application to foliage; for b: effect on crop, directly sowed Oryza sativa: application herbicide amount 320 g/ha; for effect on crop, d (directly sowed Oryza sativa): 320 g/ha
Outline: as §2

| SMILES | H (herbicidal effect grade) [1] | D (herbicidal effect grade) (Leptochloa chinensis) | e: effect on crop, Triticum aestivum (Triticum aestivum) | d: effect on crop, Glycine max (Glycine max) | f: effect on crop, Beta vulgaris ssp. vulgaris [2] | c: effect on crop, Zea mays (Zea mays) | g: effect on crop, Brassica campestris L. (Brassica campestris L.) | b: effect on crop, directly sowed Oryza sativa [3] | effect on crop, e (Triticum aestivum) (Triticum aestivum) | effect on crop, c (Glycine max) (Glycine max) | effect on crop, f (Beta vulgaris ssp. vulgaris) [2] | effect on crop, b (Zea mays) (Zea mays) | effect on crop, g (Brassica campestris L.) (Brassica campestris L.) | effect on crop, d (directly sowed Oryza sativa) [3] |
| --- | --- | --- | --- | --- | --- | --- | --- | --- | --- | --- | --- | --- | --- | --- |
| COc1ccc(N(C)c2nnc3c(C(=O)Nc4nnco4)ccc(C(F)(F)F)n23)cc1 [1-171] | 4 (Herbicidal ratio of 70% or more and less than 90%) | 4 (Herbicidal ratio of 70% or more and less than 90%) | 0 (Herbicidal ratio of 5% or less (almost no effect)) | 3 (Herbicidal ratio of 40% or more and less than 70%) | 5 (Herbicidal ratio of 90% or more (almost completely withered)) | 0 (Herbicidal ratio of 5% or less (almost no effect)) | 3 (Herbicidal ratio of 40% or more and less than 70%) | 0 (Herbicidal ratio of 5% or less (almost no effect)) |  |  |  |  |  |  |
| C=CCN(C)c1nnc2c(C(=O)Nc3nnco3)ccc(C(F)(F)F)n12 [1-172] | 5 (Herbicidal ratio of 90% or more (almost completely withered)) | 5 (Herbicidal ratio of 90% or more (almost completely withered)) | 1 (Herbicidal ratio of 5% or more and less than 20%) | 4 (Herbicidal ratio of 70% or more and less than 90%) | 5 (Herbicidal ratio of 90% or more (almost completely withered)) | 0 (Herbicidal ratio of 5% or less (almost no effect)) | 4 (Herbicidal ratio of 70% or more and less than 90%) | 3 (Herbicidal ratio of 40% or more and less than 70%) |  |  |  |  |  |  |
| COc1ccc(N(C)c2nnc3c(C(=O)Nc4nnnn4C)ccc(C(F)(F)F)n23)cc1 [2-099] | 5 (Herbicidal ratio of 90% or more (almost completely withered)) | 5 (Herbicidal ratio of 90% or more (almost completely withered)) |  |  |  |  |  |  | 0 (Herbicidal ratio of 5% or less (almost no effect)) | 0 (Herbicidal ratio of 5% or less (almost no effect)) | 5 (Herbicidal ratio of 90% or more (almost completely withered)) | 3 (Herbicidal ratio of 40% or more and less than 70%) | 4 (Herbicidal ratio of 70% or more and less than 90%) | 4 (Herbicidal ratio of 70% or more and less than 90%) |
| C=CCN(C)c1nnc2c(C(=O)Nc3nnnn3C)ccc(C(F)(F)F)n12 [2-100] | 5 (Herbicidal ratio of 90% or more (almost completely withered)) | 5 (Herbicidal ratio of 90% or more (almost completely withered)) |  |  |  |  |  |  | 0 (Herbicidal ratio of 5% or less (almost no effect)) | 0 (Herbicidal ratio of 5% or less (almost no effect)) | 5 (Herbicidal ratio of 90% or more (almost completely withered)) | 5 (Herbicidal ratio of 90% or more (almost completely withered)) | 5 (Herbicidal ratio of 90% or more (almost completely withered)) | 4 (Herbicidal ratio of 70% or more and less than 90%) |
| COCCSc1nnc2c(C(=O)Nc3nnnn3C)ccc(C(F)(F)F)n12 [2-101] | 5 (Herbicidal ratio of 90% or more (almost completely withered)) | 5 (Herbicidal ratio of 90% or more (almost completely withered)) |  |  |  |  |  |  | 3 (Herbicidal ratio of 40% or more and less than 70%) | 2 (Herbicidal ratio of 20% or more and less than 40%) | 5 (Herbicidal ratio of 90% or more (almost completely withered)) | 4 (Herbicidal ratio of 70% or more and less than 90%) | 5 (Herbicidal ratio of 90% or more (almost completely withered)) | 5 (Herbicidal ratio of 90% or more (almost completely withered)) |
